According to ChEMBL document CHEMBL1143486, “The synthesis and 16S A-site rRNA recognition of carbohydrate-free aminoglycosides” (Bioorg Med Chem Lett, 2005):

Assays:
Ribosomal RNA A-site = assay: Dissociation constant against 16S rRNA A-site; format: nucleic-acid assay
Nucleic Acid = assay: Inhibitory concentration against cell-free bacterial transcription / translation (T/T) assay; format: functional

Row | Structure (SMILES) | Kd (Ribosomal RNA A-site) | IC50 (Nucleic Acid)
1 | COc1ccc(CO[C@H]2C(N)C[C@@H](N)[C@@H](O)C2O)cc1 (stereo not given in full) | 315 µM | > 50 µM
2 | CN(C)CCCNC(=O)COC1[C@@H](OCSc2ccnc3cc(C(F)(F)F)ccc23)C(N)C[C@@H](N)[C@H]1O (stereo not given in full) | 88 µM | > 50 µM
3 | NCCCNCCOC1[C@@H](OCSc2ccnc3cc(C(F)(F)F)ccc23)C(N)C[C@@H](N)[C@H]1O (stereo not given in full) | 2 µM | 2.1 µM
4 | COc1ccc(CO[C@H]2C(N)C[C@@H](N)[C@@H](OCCNCCCN)C2O)cc1 (stereo not given in full) | 27 µM | > 50 µM
5 | CN(C)CCCNC(=O)CO[C@H]1C(O)[C@@H](OCSc2ccnc3cc(C(F)(F)F)ccc23)C(N)C[C@H]1N (stereo not given in full) | 241 µM | > 50 µM
6 | NCCCNCCO[C@H]1C(O)[C@@H](OCSc2ccnc3cc(C(F)(F)F)ccc23)C(N)C[C@H]1N (stereo not given in full) | 1.5 µM | 15 µM
7 | COc1ccc(CO[C@H]2C(N)C[C@@H](N)[C@@H](O)C2OCCNCCCN)cc1 (stereo not given in full) | 10 µM | > 50 µM
8 | NC[C@H]1O[C@H](O[C@H]2[C@H](O)[C@@H](O)[C@H](N)C[C@@H]2N)[C@H](N)[C@@H](O)[C@@H]1O [NEAMINE] | 5 µM | > 50 µM
9 | NC1C[C@@H](N)[C@@H](O)C(O)[C@H]1OCSc1ccnc2cc(C(F)(F)F)ccc12 (stereo not given in full) | 35 µM | > 50 µM
10 | NC[C@@H]1O[C@H](O[C@H]2[C@@H](O)[C@H](O[C@@H]3[C@@H](O)[C@H](N)C[C@H](N)[C@H]3O[C@H]3O[C@H](CO)[C@@H](O)[C@H](O)[C@H]3N)O[C@@H]2CO)[C@H](N)[C@@H](O)[C@@H]1O [PAROMOMYCIN] | 0.1 µM | 0.6 µM
